The pKi is the Ki on a negative log10 scale, so that one unit is a factor of ten.

pKi: −log10 of the molar value.

Here are results for 22 compounds from US7157487B2, “Vla-4 inhibitors” (Daiichi Pharmaceutical Co., Ltd., priority 2000, dated 2007).

The target of the test is T1, integrins haα4 and β1 (VLA-4) expressed on CHO cells (Homo sapiens, UniProt P05556+P13612).
T1 construct: expressed in transfected cells; host or cells: CHO cells
T1 sequence (P13612 34-1032): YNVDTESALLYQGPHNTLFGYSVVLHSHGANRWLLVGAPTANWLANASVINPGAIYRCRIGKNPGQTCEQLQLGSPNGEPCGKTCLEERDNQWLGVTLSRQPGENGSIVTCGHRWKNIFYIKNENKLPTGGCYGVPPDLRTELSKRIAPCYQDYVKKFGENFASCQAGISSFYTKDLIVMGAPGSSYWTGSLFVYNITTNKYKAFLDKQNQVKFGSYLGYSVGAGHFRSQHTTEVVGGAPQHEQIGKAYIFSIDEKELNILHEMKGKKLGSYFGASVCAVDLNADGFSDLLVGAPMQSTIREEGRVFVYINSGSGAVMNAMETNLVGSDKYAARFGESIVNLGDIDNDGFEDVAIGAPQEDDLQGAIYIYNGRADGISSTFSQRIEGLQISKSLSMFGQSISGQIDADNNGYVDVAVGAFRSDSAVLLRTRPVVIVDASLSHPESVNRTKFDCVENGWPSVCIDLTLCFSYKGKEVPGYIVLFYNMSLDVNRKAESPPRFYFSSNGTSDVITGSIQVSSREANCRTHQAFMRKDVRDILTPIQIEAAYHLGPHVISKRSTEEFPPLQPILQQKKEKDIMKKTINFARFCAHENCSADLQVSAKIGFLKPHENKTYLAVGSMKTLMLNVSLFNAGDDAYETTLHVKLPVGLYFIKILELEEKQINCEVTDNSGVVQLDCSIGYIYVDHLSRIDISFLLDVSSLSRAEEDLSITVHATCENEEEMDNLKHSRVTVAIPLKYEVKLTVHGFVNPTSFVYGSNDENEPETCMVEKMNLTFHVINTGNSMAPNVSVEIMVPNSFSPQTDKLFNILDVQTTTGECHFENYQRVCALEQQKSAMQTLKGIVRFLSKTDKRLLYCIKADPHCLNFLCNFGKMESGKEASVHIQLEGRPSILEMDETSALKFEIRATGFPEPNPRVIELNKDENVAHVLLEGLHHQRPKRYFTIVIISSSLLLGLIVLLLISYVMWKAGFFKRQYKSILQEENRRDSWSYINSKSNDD
T1 sequence (P05556 21-798): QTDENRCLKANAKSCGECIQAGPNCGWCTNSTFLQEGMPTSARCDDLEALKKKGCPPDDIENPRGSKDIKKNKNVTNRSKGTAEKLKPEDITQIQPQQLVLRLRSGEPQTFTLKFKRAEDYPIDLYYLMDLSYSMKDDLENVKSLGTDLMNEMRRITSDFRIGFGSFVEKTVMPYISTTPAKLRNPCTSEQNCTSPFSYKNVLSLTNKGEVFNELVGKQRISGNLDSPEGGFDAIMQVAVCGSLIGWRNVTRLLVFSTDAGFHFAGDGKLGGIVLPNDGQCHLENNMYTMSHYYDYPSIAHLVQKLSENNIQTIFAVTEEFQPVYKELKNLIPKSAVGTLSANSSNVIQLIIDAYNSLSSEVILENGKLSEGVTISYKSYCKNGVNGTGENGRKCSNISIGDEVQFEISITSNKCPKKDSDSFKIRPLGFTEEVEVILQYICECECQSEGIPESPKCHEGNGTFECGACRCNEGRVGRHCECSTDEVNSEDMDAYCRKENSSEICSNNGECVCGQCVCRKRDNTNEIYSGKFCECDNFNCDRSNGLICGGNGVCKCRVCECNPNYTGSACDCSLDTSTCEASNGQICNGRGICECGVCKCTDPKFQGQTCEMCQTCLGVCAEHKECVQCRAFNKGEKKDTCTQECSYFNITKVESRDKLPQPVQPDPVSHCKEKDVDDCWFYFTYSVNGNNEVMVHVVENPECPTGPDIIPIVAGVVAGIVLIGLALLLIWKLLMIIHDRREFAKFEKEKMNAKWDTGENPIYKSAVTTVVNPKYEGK
Nature of the test: In vitro Evaluation Test (1): binding of Eu3+-hVCAM-1 D1D7-IgG to CHO cells expressing integrins α4 and β1. The note with it: inhibition of Eu3+-hVCAM-1 D1D7-IgG binding to CHO cells expressing α4β1; Ki calculated from IC50. How it is done:
CHO cells forcedly expressed by the transduction of integrins haα4 and β1 were seeded in a Coster 3599 plate (3×10^4 cells/100 μl/well) and they were cultured for 2 days. After the medium was washed with buffer A* twice, 50 μl/well of Eu^3+-hVCAM-1 D1D7-IgG diluted to […] with an assay buffer ** was added. To the resulting well was added 50 μl/well of a test compound diluted with 2% DMS0-assay buffer (in the presence or absence of 6% human serum albumin) (to a well subjected to Scatchard analysis was added a solution diluted in another manner). After stirring for 5 minutes on a plate mixer, the plate was allowed to stand at room temperature for 1 hour. Then, the plate was washed four times with the buffer A and added with 100 μl/well of an enhancement reagent (DELFIA). The plate was shaken for 5 minutes on a plate mixer, followed by measurement of fluorescence intensity by a time-resolved fluorometer (DELFIA Wallac). From the binding ratio available by the following calculation formula: ((FT−FNS)−(FI−FNS))/(FT−FNS)×100, the IC50 (concentration inhibiting 50% of binding of CHO cells with hVCAM-1 D1D7-IgG) of the test compound was determined. In the above formula, FT means the fluorescence intensity of the well free of the test compound, FNS means the fluorescence intensity of the well free of the test compound and anti-hα4 antibody (SG/73), and FI means the fluorescence intensity of the well containing the test compound. The Kd indicating the binding strength and Bmax (maximum binding) were estimated within a range of 0.06 to 20 nM in accordance with the Scatchard analysis method.
The value Ki was calculated based on:
[formula] ((L) means a ligand concentration). (* buffer A: 25 mM HEPES (pH 7.5), 150 mM NaCl, 1 mM Ca^2+, 1 MM Mg^2+, 4 mM Mn^2+; ** assay buffer: 25 mM HEPES (pH 7.5), 150 mM NaCl, 1 mM Ca^2+, 1 mM Mg^2+, 4 mM Mn^2+, 0.1% BSA, 20 μM DTPA, with/without 6% ALBUMIN, HUMAN SERUM (C/N A-1653, SIGMA)) In vitro Evaluation Test (2)
For `Cc1ccccc1Nc1nc2ccc(CC(=O)N3C[C@@H](F)C[C@H]3C(=O)N3CCN(CC(=O)O)CC3)cc2o1` [Example 30, 4-((4S)-Fluoro-1-(2-(2-methylphenylamino)-6-benzoxazolylacetyl)-(2S)-pyrrolidinylcarbonyl)-1-piperazinylacetic acid], the pKi was 7.40.

Take `Cn1cc(C(=O)Nc2cc(F)c(CC(=O)N3C[C@@H](OC4CCCCC4)C[C@H]3CO[C@H]3CC[C@H](C(=O)O)CC3)cc2Cl)c2ccccc21` [Example 119, trans-4-(1-((5-Chloro-2-fluoro-4-(1-methyl-3-indolylcarbonylamino)phenyl)acetyl)-(4S)-cyclohexyloxy-(2S)-pyrrolidinylmethoxy)cyclohexanecarboxylic acid]: the pKi is 8.23.

As for `Cn1cc(-c2nc3ccc(CC(=O)N4CCC[C@H]4CO[C@H]4CC[C@H](C(=O)O)CC4)cc3o2)c2ccc(F)cc21` [Example 131, trans-4-(1-((2-(6-Fluoro-1-methyl-3-indolyl)-6-benzoxazolyl)acetyl)-(2S)-pyrrolidinylmethoxy)-1-cyclohexanecarboxylic acid], the negative-log Ki (pKi) is 7.77.

As for `O=C(Nc1cc(F)c(CC(=O)N2C[C@@H](F)C[C@H]2CO[C@H]2CC[C@H](C(=O)O)CC2)cc1Cl)c1nsc2ccccc12` [Example 85, trans-4-(1-(5-Chloro-2-fluoro-(4-((3-benzo(d)isothiazolylcarbonyl)amino)phenyl)acetyl)-(4S)-fluoro-(2S)-pyrrolidinylmethoxy)cyclohexanecarboxylic acid], the negative logarithm of the Ki (pKi) is 8.19.

As for `COC[C@H]1C[C@@H](CO[C@H]2CC[C@H](C(=O)O)CC2)N(C(=O)Cc2ccc3nc(Nc4cc(F)ccc4C)oc3c2F)C1` [Example 140, trans-4-(1-(7-Fluoro-2-(5-fluoro-2-methylphenylamino)-6-benzoxazolylacetyl)-(4S)-methoxymethyl-(2S)-pyrrolidinylmethoxy)cyclohexanecarboxylic acid], the pKi is 8.74.

As for `O=C(Cc1ccc(Nc2nc3cccc(F)c3o2)c(Cl)c1)N1C[C@@H](F)C[C@H]1CO[C@H]1CC[C@H](C(=O)O)CC1` [Example 53, trans-4-(1-(3-Chloro-4-(2-(7-fluorobenzoxazolyl))aminophenylacetyl)-(4S)-fluoro-(2S)-pyrrolidinylmethoxy)cyclohexanecarboxylic acid], the negative logarithm of the Ki (pKi) was 7.49.

`Cn1cc(-c2nc3ccc(CC(=O)N4C[C@@H](F)C[C@H]4CO[C@H]4CC[C@H](C(=O)O)CC4)cc3o2)c2ccc(F)cc21` [Example 99, trans-4-(1-((2-(6-Fluoro-1-methyl-3-indolyl)-6-benzoxazolyl)acetyl)-(4S)-fluoro-(2S)-pyrrolidinylmethoxy)cyclohexanecarboxylic acid]: the pKi was 7.77.

Turning to `Cn1cc(C(=O)Nc2cc(F)c(CC(=O)N3CC(F)(F)C[C@H]3CO[C@H]3CC[C@H](C(=O)O)CC3)cc2Cl)c2ccccc21` (mixture of isomers) [Example 143, trans-4-(1-(5-Chloro-2-fluoro-4-(1-methyl-3-indolylcarbonylamino)phenylacetyl)-4,4-difluoro-(2S)-pyrrolidinylmethoxy)cyclohexanecarboxylic acid and cis-4-(1-(5-chloro-2-fluoro-4-(1-methyl-3-indolylcarbonylamino)phenylacetyl)-4,4-difluoro-(2S)-pyrrolidinylmethoxy)cyclohexanecarboxylic acid], the negative logarithm of the Ki (pKi) is 7.77.

Regarding `Cn1cc(C(=O)Nc2cc(F)c(CC(=O)N3C[C@@H](F)C[C@H]3CO[C@H]3CC[C@H](C(=O)O)CC3)cc2Cl)c2c(F)cccc21` [Example 75, trans-4-(1-((5-Chloro-2-fluoro-4-((4-fluoro-1-methyl-3-indolylcarbonyl)amino)phenyl)acetyl)-(4S)-fluoro-(2S)-pyrrolidinylmethoxy)cyclohexanecarboxylic acid], the negative logarithm of the Ki (pKi) is 7.68.

As for `Cc1cccc2oc(Nc3ccc(CC(=O)N4C[C@@H](F)C[C@H]4CO[C@H]4CC[C@H](C(=O)O)CC4)cc3Cl)nc12` [Example 52, trans-4-(1-(3-Chloro-4-(2-(4-methylbenzoxazolyl))aminophenylacetyl)-(4S)-fluoro-(2S)-pyrrolidinylmethoxy)cyclohexanecarboxylic acid], the negative logarithm of the Ki (pKi) was 8.00.

For `Cn1cc(-c2nc3ccc(CC(=O)N4C[C@@H](F)C[C@H]4CO[C@H]4CC[C@H](C(=O)O)CC4)c(F)c3o2)c2cc(F)ccc21` (relative stereo) [Example 101, trans-4-(1-((2-(5-Fluoro-1-methyl-3-indolyl)-7-fluoro-6-benzoxazolyl)acetyl)-(4S)-fluoro-(2S)-pyrrolidinylmethoxy)cyclohexanecarboxylic acid], the negative-log Ki (pKi) was 8.09.

As for `Cn1cc(C(=O)Nc2ccc(CC(=O)N3C[C@@H](F)C[C@H]3COc3ccc(C(=O)O)cc3)cc2Cl)c2ccccc21` [Example 147, 4-(1-((3-Chloro-4-((1-methyl-3-indolylcarbonyl)amino)phenyl)acetyl)-(4S)-fluoro-(2S)-pyrrolidinylmethoxy)benzoic acid], the negative logarithm of the Ki (pKi) is 7.40.

On to `Cn1cc(C(=O)Nc2cc(F)c(CC(=O)N3C[C@@H](F)C[C@H]3CCN3CCC(C(=O)O)CC3)cc2Cl)c2ccccc21` [Example 109, 1-(2-(1-((5-Chloro-2-fluoro-4-((1-methyl-3-indolylcarbonyl)amino)phenyl)acetyl)-(4S)-fluoro-(2R)-pyrrolidinyl)ethyl)-4-piperidinecarboxylic acid], for which the pKi was 7.60.

As to `Cc1ccccc1Nc1nc2ccc(CC(=O)N3CCC[C@H]3COC3CCC(C(=O)O)CC3)cc2o1` (single isomer, unassigned) [22 (Isomer B)], the pKi was 8.46.

As to `Cc1ccc(F)cc1Nc1nc2ccc(CC(=O)N3C[C@@H](F)C[C@H]3C(=O)N[C@H]3CC[C@H](C(=O)O)CC3)c(F)c2o1` [Example 110, trans-4-(((4S)-Fluoro-1-(2-(5-fluoro-2-methylphenylamino)-7-fluoro-6-benzoxazolylacetyl)-(2S)-pyrrolidinyl)carbonylamino)cyclohexanecarboxylic acid], the pKi is 8.15.

For `Cn1cc(C(=O)Nc2cc(F)c(CC(=O)N3C[C@@H](F)C[C@H]3CO[C@H]3CC[C@H](C(=O)O)CC3)cc2Cl)c2ccc(F)cc21` [Example 73, trans-4-(1-((5-Chloro-2-fluoro-4-((6-fluoro-1-methyl-3-indolylcarbonyl)amino)phenyl)acetyl)-(4S)-fluoro-(2S)-pyrrolidinylmethoxy)cyclohexanecarboxylic acid], the negative logarithm of the Ki (pKi) is 7.29.

For the compound `Cc1ccccc1Nc1nc2ccc(CC(=O)N3C[C@@H](F)C[C@H]3COc3ccc(C(=O)O)cn3)cc2o1` [Example 18, 6-((4S)-Fluoro-1-(2-(2-methylphenylamino)-6-benzoxazolylacetyl)-(2S)-pyrrolidinylmethoxy)nicotinic acid], the pKi was 8.11.

Take `O=C(Cc1ccc2nc(N3CCc4ccccc43)oc2c1F)N1C[C@@H](F)C[C@H]1CO[C@H]1CC[C@H](C(=O)O)CC1` [Example 105, trans-4-(1-((7-fluoro-2-(1-indolinyl)-6-benzoxazolyl)acetyl)-(4S)-fluoro-(2S)-pyrrolidinylmethoxy)cyclohexanecarboxylic acid]: the negative-log Ki (pKi) is 7.38.

As for `CS[C@H]1C[C@@H](CO[C@H]2CC[C@H](C(=O)O)CC2)N(C(=O)Cc2cc(Cl)c(NC(=O)c3nn(C)c4ccccc34)cc2F)C1` [Example 127, trans-4-(1-((5-Chloro2-fluoro-4-((1-methyl-3-indazolylcarbonyl)amino)phenyl)acetyl)-(4S)-methylthio-(2S)-pyrrolidinylmethoxy)cyclohexanecarboxylic acid], the pKi is 8.01.

For `COC[C@@H]1CC[C@@H](CO[C@H]2CC[C@H](C(=O)O)CC2)N1C(=O)Cc1ccc2nc(Nc3cc(F)ccc3C)oc2c1F` [Example 167, trans-4-(1-((2-(5-Fluoro-2-methylphenylamino)-7-fluoro-6-benzoxazolyl)acetyl)-(5S)-methoxymethyl-(2S)-pyrrolidinylmethoxy)cyclohexanecarboxylic acid], the negative-log Ki (pKi) was 9.06.

On to `CO[C@H]1C[C@@H](CO[C@H]2CC[C@H](C(=O)O)CC2)N(C(=O)Cc2ccc3nc(Nc4ccccc4Cl)oc3c2F)C1` (relative stereo) [Example 114, trans-4-(1-((2-(2-chlorophenylamino)-7-fluoro-6-benzoxazolyl)acetyl)-(4S)-methoxy-(2S)-pyrrolidinylmethoxy)cyclohexanecarboxylic acid], for which the negative-log Ki (pKi) was 8.32.

As to `Cc1ccc(F)cc1Nc1nc2ccc(CC(=O)N3CC[C@@H](O[C@H]4CC[C@H](C(=O)O)CC4)C3)c(F)c2o1` [Example 160, 4-(1-(2-(5-Fluoro-2-methylphenylamino)-7-fluoro-6-benzoxazolylacetyl)-(3R)-pyrrolidinyloxy)cyclohexanecarboxylic acid], the pKi is 7.21.
